Results taken from patent US12427134B2, “Methods of reducing the risk of cardiovascular events in a subject with atrial fibrillation and/or atrial flutter” (priority 2019, dated 2025).

Legend:
[1] = test system: hypertriglyceridemic patients with cardiovascular disease or at high risk for cardiovascular disease; assay: REDUCE-IT: clinical laboratory evaluation (hematology, liver function tests, clinical chemistry, drug-induced liver injury); type: in vivo, human
Description: Clinical Laboratory Procedures and Evaluations: All clinical laboratory determinations for screening and safety were performed by a certified clinical laboratory under the supervision of the Sponsor or its designee. Whenever possible and appropriate, samples for the clinical laboratory procedures were collected after fasting for at least 10 hours. For the purposes of this study, fasting was defined as nothing by mouth except water (and any essential medications). The investigator reviewed and signed all laboratory test reports. At screening, patients who had laboratory values that are outside the exclusionary limits specified in the exclusion criteria were not enrolled in the study (patients would have been considered for the study if values were classified as not clinically significant by the investigator). After randomization, the investigator was notified if laboratory values were outside of their normal range. In this case, the investigator was required to conduct clinically appropriate follow-up procedures.
Safety Laboratory Tests: The safety parameters were analyzed by a certified clinical laboratory at screening (Visit 1 or Visit 1.1), Randomization visit (Visit 2; Day 0), Visit 3 (Day 120; −4 Months) and all other follow-up visits including the Last Visit. The safety laboratory tests included: • Hematology with complete blood count (CBC), including RBC, hemoglobin (Hgb), hematocrit (Hct), white cell blood count (WBC), white cell differential, and platelet count; and • Biochemistry panel including total protein, albumin, alkaline phosphatase, alanine am inotransferase (ALT/SGPT), aspartate am inotransferase (AST/SGOT), total bilirubin, glucose, calcium, electrolytes (sodium, potassium, chloride), blood urea nitrogen (BUN), serum creatinine, uric acid, creatine kinase, and HbA1c.
Each laboratory result was classified as low (L), normal (N), and high (H) at each visit according to the laboratory-supplied normal range. The shift from baseline was presented for each post-baseline visit and overall post-baseline visits. If multiple measurements for a test parameter were available for a post-baseline patient-visit, the most extreme value was included in the shift table. For shift from baseline to overall post-baseline visits, values from all visits (including unscheduled measurements) were included. The chemistry shift table included fasting lipid parameters. The continuous lipid values were presented as part of the efficacy analysis.
A treatment-emergent PCS high value at any time was defined as a change from a value less than or equal to the upper reference limit at baseline to a PCS high value at any post-baseline measurement. A treatment-emergent PCS low value at any time was defined as a change from a value greater than or equal to the lower reference limit at baseline to a PCS low value at any post-baseline measurement. Number (%) of patients with any post-baseline PCS laboratory values was summarized by treatment group. A listing of patients with PCS laboratory values at any time, i.e., baseline or at any post-baseline visit, were included.
DILI cases were investigated through the following analyses: • A graph of distribution of peak values of alanine aminotransferase (ALT) versus peak values of total bilirubin (TBL) during the treatment period was prepared, using a logarithmic scale. In the graph, for each patient, the peak TBL times the Upper Limit of Normal (ULN) were plotted against the peak ALT times the ULN, where the peak TBL and peak ALT may or may not have happened on the same day of liver testing. The graph was divided into 4 quadrants with a vertical line corresponding to 3×ULN for ALT and a horizontal line corresponding to 2×ULN for TBL. […]

[2] = test system: hypertriglyceridemic patients with cardiovascular disease or at high risk for cardiovascular disease; assay: REDUCE-IT: post hoc analyses of primary + risk and key secondary + risk composite endpoints (adding atrial fibrillation/flutter and bleeding); type: in vivo, human; conditions: ITT
[3] = Baseline (Visit 2), Safety population
[4] = Visit 9 (n = 8), Safety population
[5] = Visit 9 (only 8 patients had data)
[6] = any post-baseline visit, 3975 patients with data
[7] = any post-baseline visit, 3977 patients with data

In the case of `CC/C=C\C/C=C\C/C=C\C/C=C\C/C=C\CCCC(=O)OCC` [AMR101, eicosapentaenoic acid ethyl ester], the “ALT, mean baseline value” [1, 3] is reported as 27.72 U/L, the “AST, mean baseline value” [1, 3] is reported as 24.47 U/L and the “Hemoglobin, mean baseline value” [1, 3] is reported as 141.16 g/L. For the same compound, the “Platelet Count, mean baseline value” [1, 3] was 2.4301e+11 L⁻¹, the “ALT, mean change from baseline” value ([1]; Last Visit, Safety population) was −2.33 U/L and the “AST, mean change from baseline” value ([1]; Last Visit, Safety population) was −1.25 U/L. The “Hemoglobin, mean change from baseline” value ([1]; Last Visit, Safety population) was -1.12 g/L, the “Platelet Count, mean change from baseline” value (from here on “Platelet Count, mean change”) ([1]; Last Visit, Safety population) was -5.52e+09 L⁻¹ and the “Increase of 3×ULN in ALT or AST and increase of 2×ULN in total bilirubin, patients” value ([1]; Safety population) was “one patient”. For the same compound, the “Increase of 3×ULN in ALT or AST, increase of 2×ULN in total bilirubin, and alkaline phosphatase ≤2×ULN, patients” value ([1]; Safety population) was “one patient”, the “Individual study drug-related hematology and clinical chemistry TEAEs, incidence” value ([1]; Safety population) was less than 0.2% and the “Patients with basophils PCS high >1%” value ([1]; Safety population) was 47.0%. For the same compound, the “Patients with treatment-emergent total bilirubin >ULN” value ([1]; Safety population) was 7.5%, the “TEAE blood glucose increased, patients” value ([1]; Safety population) was 2.6% and the “TEAE hyperglycemia, patients” value ([1]; Safety population) was 1.7%. For the same compound, the “TEAE hypoglycemia, patients” value ([1]; Safety population) was 1.5%, the “ALT, mean change from baseline” value ([1]; Visit 3, Safety population) was 0.39 U/L and the “AST, mean change from baseline” value ([1]; Visit 3, Safety population) was 0.24 U/L. The “Hemoglobin, mean change from baseline” value ([1]; Visit 3, Safety population) was 0.17 g/L, the “Platelet Count, mean change” value ([1]; Visit 3, Safety population) was -2.36e+09 L⁻¹ and the “ALT, mean change from baseline” value ([1]; Visit 4, Safety population) was −0.28 U/L. For the same compound, the “AST, mean change from baseline” value ([1]; Visit 4, Safety population) was 0.03 U/L, the “Hemoglobin, mean change from baseline” value ([1]; Visit 4, Safety population) was 0.85 g/L and the “Platelet Count, mean change” value ([1]; Visit 4, Safety population) was -4.85e+09 L⁻¹. The “ALT, mean change from baseline” value ([1]; Visit 5, Safety population) was −1.27 U/L, the “AST, mean change from baseline” value ([1]; Visit 5, Safety population) was −0.83 U/L and the “Hemoglobin, mean change from baseline” value ([1]; Visit 5, Safety population) was 1.39 g/L. For the same compound, the “Platelet Count, mean change” value ([1]; Visit 5, Safety population) was -1.05e+10 L⁻¹, the “ALT, mean change from baseline” value ([1]; Visit 6, Safety population) was −1.66 U/L and the “AST, mean change from baseline” value ([1]; Visit 6, Safety population) was −1.10 U/L. The “Hemoglobin, mean change from baseline” value ([1]; Visit 6, Safety population) was 0.92 g/L, the “Platelet Count, mean change” value ([1]; Visit 6, Safety population) was -1.368e+10 L⁻¹ and the “ALT, mean change from baseline” value ([1]; Visit 7, Safety population) was −2.80 U/L. For the same compound, the “AST, mean change from baseline” value ([1]; Visit 7, Safety population) was −1.56 U/L, the “Hemoglobin, mean change from baseline” value ([1]; Visit 7, Safety population) was 0.64 g/L and the “Platelet Count, mean change” value ([1]; Visit 7, Safety population) was -1.73e+10 L⁻¹. The “Platelet count, greatest mean decrease from baseline excluding Visit 9” value ([1]; Visit 8) was 1.85e+10 L⁻¹, the “ALT, mean change from baseline” value ([1]; Visit 8, Safety population) was −3.42 U/L and the “AST, mean change from baseline” value ([1]; Visit 8, Safety population) was −1.66 U/L. The “Hemoglobin, mean change from baseline” value ([1]; Visit 8, Safety population) was -0.33 g/L, the “Platelet Count, mean change” value ([1]; Visit 8, Safety population) was -1.854e+10 L⁻¹ and the “ALT, mean change from baseline” value [1, 4] was −1.25 U/L. The “AST, mean change from baseline” value [1, 4] was 0.25 U/L, the “Hemoglobin, mean change from baseline” value [1, 4] was -4.13 g/L and the “Platelet Count, mean change” value [1, 4] was -3.288e+10 L⁻¹. For the same compound, the “Hemoglobin, greatest mean change from baseline” value [1, 5] was -4.1 g/L, the “Platelet count, greatest mean decrease from baseline” value [1, 5] was 3.29e+10 L⁻¹ and the “ALT or AST >3 × ULN and Total Bilirubin >2 × ULN, % patients” value [1, 6] was “(0.0) %”. The “ALT or AST >3 × ULN and Total Bilirubin >2 × ULN, n patients” value [1, 6] was 1, the “ALT or AST >3 × ULN, % patients” value [1, 6] was “(1.5) %” and the “ALT or AST >3 × ULN, Total Bilirubin >2 × ULN, and ALP ≤2 × ULN, % patients” value [1, 6] was “(0.0) %”. The “ALT or AST >3 × ULN, Total Bilirubin >2 × ULN, and ALP ≤2 × ULN, n patients” value [1, 6] was 1, the “ALT or AST >3 × ULN, n patients” value [1, 6] was 61 and the “PCS High >3 × ULN (AST) and >2 × ULN (Total Bilirubin), % patients” value [1, 6] was “(0.0) %”. For the same compound, the “PCS High >3 × ULN (AST) and >2 × ULN (Total Bilirubin), n patients” value [1, 6] was 1, the “Treatment-emergent AST >3 × ULN, % patients” value [1, 6] was “(0.9) %” and the “Treatment-emergent AST >3 × ULN, n patients” value [1, 6] was 36. The “Treatment-emergent AST >ULN, % patients” value [1, 6] was “(23.4) %”, the “Treatment-emergent AST >ULN, n patients” value [1, 6] was 932 and the “PCS High >3 × ULN (ALT) and >2 × ULN (Total Bilirubin), % patients” value [1, 7] was “(0.0) %”. The “PCS High >3 × ULN (ALT) and >2 × ULN (Total Bilirubin), n patients” value [1, 7] was 1, the “Treatment-emergent ALP >2 × ULN, % patients” value [1, 7] was “(0.5) %” and the “Treatment-emergent ALP >2 × ULN, n patients” value [1, 7] was 18. For the same compound, the “Treatment-emergent ALP >ULN, % patients” value [1, 7] was “(7.7) %”, the “Treatment-emergent ALP >ULN, n patients” value [1, 7] was 308 and the “Treatment-emergent ALT >3 × ULN, % patients” value [1, 7] was “(1.1) %”. For the same compound, the “Treatment-emergent ALT >3 × ULN, n patients” value [1, 7] was 44, the “Treatment-emergent ALT >ULN, % patients” value [1, 7] was “(32.9) %” and the “Treatment-emergent ALT >ULN, n patients” value [1, 7] was 1308. For the same compound, the “Treatment-emergent Total Bilirubin >2 × ULN, % patients” value [1, 7] was “(0.5) %”, the “Treatment-emergent Total Bilirubin >2 × ULN, n patients” value [1, 7] was 21 and the “Treatment-emergent Total Bilirubin >ULN, % patients” value [1, 7] was “(7.5) %”. For the same compound, the “Treatment-emergent Total Bilirubin >ULN, n patients” value [1, 7] was 297, the “Hemoglobin, greatest mean change from baseline excluding Visit 9” value ([1]; final visit) was -1.1 g/L and the “AFib/AFlutter + MI + Stroke + Cardiac Arrest + Sudden Cardiac Death, Rate/1000 pt yrs” value [2] was 29.4 /1000 pt yrs. The “Key Secondary + AFib/AFlutter, Rate/1000 pt yrs” value [2] was 33.1 /1000 pt yrs, the “Key Secondary + Serious Bleeding, Rate/1000 pt yrs” value [2] was 32.1 /1000 pt yrs and the “Primary + AFib/AFlutter + Serious Bleeding, Rate/1000 pt yrs” value [2] was 53.5 /1000 pt yrs. For the same compound, the “Primary + AFib/AFlutter, Rate/1000 pt yrs” value [2] was 49.0 /1000 pt yrs, the “Primary + Serious Bleeding, Rate/1000 pt yrs” value [2] was 48.2 /1000 pt yrs and the “AFib/AFlutter + MI + Stroke + Cardiac Arrest + Sudden Cardiac Death, subjects with event” value ([2]; N = 4089) was 491. The “AFib/AFlutter + MI + Stroke + Cardiac Arrest + Sudden Cardiac Death, subjects with event (%)” value ([2]; N = 4089) was 12.0%, the “Key Secondary + AFib/AFlutter + Serious Bleeding, subjects with event” value ([2]; N = 4089) was 625 and the “Key Secondary + AFib/AFlutter, subjects with event” value ([2]; N = 4089) was 552. For the same compound, the “Key Secondary + AFib/AFlutter, subjects with event (%)” value ([2]; N = 4089) was 13.5%, the “Key Secondary + Serious Bleeding, subjects with event” value ([2]; N = 4089) was 539 and the “Key Secondary + Serious Bleeding, subjects with event (%)” value ([2]; N = 4089) was 13.2%. The “Primary + AFib/AFlutter + Serious Bleeding, subjects with event” value ([2]; N = 4089) was 850, the “Primary + AFib/AFlutter + Serious Bleeding, subjects with event (%)” value ([2]; N = 4089) was 20.8% and the “Primary + AFib/AFlutter, subjects with event” value ([2]; N = 4089) was 785. For the same compound, the “Primary + AFib/AFlutter, subjects with event (%)” value ([2]; N = 4089) was 19.2%, the “Primary + Serious Bleeding, subjects with event” value ([2]; N = 4089) was 775 and the “Primary + Serious Bleeding, subjects with event (%)” value ([2]; N = 4089) was 19.0%. For the same compound, the “AFib/AFlutter + MI + Stroke + Cardiac Arrest + Sudden Cardiac Death, HR (95% CI)” value ([2]; vs placebo) was 0.789 (0.701, 0.889), the “Key Secondary + AFib/AFlutter + Serious Bleeding, HR (95% CI)” value ([2]; vs placebo) was 0.855 (0.768, 0.952) and the “Key Secondary + AFib/AFlutter, HR (95% CI)” value ([2]; vs placebo) was 0.818 (0.731, 0.916). The “Key Secondary + Serious Bleeding, HR (95% CI)” value ([2]; vs placebo) was 0.789 (0.704, 0.884), the “Primary + AFib/AFlutter + Serious Bleeding, HR (95% CI)” value ([2]; vs placebo) was 0.830 (0.757, 0.910) and the “Primary + AFib/AFlutter, HR (95% CI)” value ([2]; vs placebo) was 0.803 (0.731, 0.883). For the same compound, the “Primary + Serious Bleeding, HR (95% CI)” value ([2]; vs placebo) was 0.785 (0.714, 0.863).
